Results from patent US4003945A, “Novel cyclopropanecarboxylates” (Sumitomo Chemical Company, Limited, priority 1973, dated 1977).
In brackets after ≈: the same amount, converted by molar mass.

What was measured:
[1] = system: larvae of tobacco cut worm, diamondback moth and common cabbage worms; assay: Fumigation of Chinese cabbages in vinyl house with heated wettable powder (Example XIV); type: in vivo; settings: 10 grams of 40% wettable powder per 30 m^2 compartment
Excerpt: In the vinyl house, the Chinese cabbages were cultivated and the leaves were parasitized with the larvae of tobacco cut worm, diamondback moth and common cabbage worms.
The vinyl house (its height was 2 m) was divided into compartments of 30 m^2 in area and 10 grams of the present compound (1, 4) in the form of 40% wettable powder was put into the plate heated by fire.

housefly adults = assay: Oil spray, Campbel's turn table, lethal concentration (Test Example 2); type: in vivo; settings: Musca domestica, 24 h
Experimental: A group of about 100 housefly adults was exposed to descending spray for 10 minutes, thereafter was transferred to an observation cage, was fed, and was allowed to stand at room temperature.
After a day, the dead and alive were counted to calculate the lethal ratio.

[2] = system: 3rd or 4th instar larvae of tobacco cut worm; assay: Diluted emulsion sprayed by settling tower on larvae (Example X); type: in vivo; settings: emulsion diluted to 50 times, 1 ml
Experimental: Ten of the 3rd or 4th instar larvae of tobacco cut worm were put into a petri dish of 17 cm in diameter.
One ml of the present compound (4, 11, 28, 92, 94, 95, 109, 111) in form of an emulsion obtained in Example X, which were diluted to 50 times with water, were sprayed by means of a settling tower. The said larvae were removed into another petri dish with the leaves of the chinese cabbage leaves. Observation was made after 48 hrs. As a result, more than 90% of the larvae were dead in each case.

adult leafhoppers = assay: Granule applied to rice plants in Wagner pot (Example XIII); type: in vivo, leafhopper; settings: granule of Example W, 10 kg/10 ares
Experimental: Rice plants at the tillering stage were grown in Wagner pots, and the depth of water was kept at 5 cm.
The present compound (4) obtained in Example W was put into the Wagner pot with 10 kg/10 ares, and the said pot was covered with a wire cage into which 20 adult leafhoppers were released.

adults of houseflies = assay: Oil preparation sprayed on Campbell's turn table (Example XX); type: in vivo, housefly; settings: Musca domestica, 24 h; Table 6; 1% oil preparation 5 ml, 10 minutes exposure, next day
Experimental: The oil preparation obtained as in Example B (5 ml) was sprayed by the use of a Campbell's turn table [Soap & Sanitary Chemicals, Vol. 14, No. 6, 119 (1938) ] on 100 adults of houseflies were exposed to the spray for 10 minutes. The houseflies were then allowed to stand with feeding. On the next day, dead and alive were observed.

[3] = system: Full grown larvae of the Northern house mosquito; assay: Larvicidal test in beaker with diluted emulsifiable concentrate (Example XIX); type: in vivo; settings: Table 5; after 24 hours
Experimental: 30 Full grown larvae of the Northern house mosquito were released into the beaker with 200 ml of dilution of each emulsifiable concentrates which obtained in Example X.

adult planthoppers = assay: Residual effect on sprayed rice seedlings (Example XV); type: in vivo; settings: concentrate diluted to 400 times; observed 24 hours after release
Experimental: About 20 rice seedlings, cultivated for 20 days after sowing in a flower pot of 8.5 cm in diameter, were sprayed with each of the emulsifiable concentrates obtained as in Example X which were diluted to 400 times with water. After air-drying, each pot was covered with a wire cage, into which 20 adult planthoppers were released as time elapsed. And the observation was made after 24 hours.

tobacco cut worm = assay: Dust on Chinese cabbages in the field (Example XVIII); type: in vivo; settings: 5% dust, 3kg/10 ares, for 2 months
Excerpt: Each 5% dust of the present compounds 31, 32, 62, 63 was spread in a ratio of 3kg/10 ares on the Chinese cabbages of 40 days after sowing in the field. And about 9,000 eggs of tobacco cut worm were put on the leaves of the Chinese cabbages per 10 ares every 5 days for a month.

[4] = Oral acute toxicity in male mice (Example XXI); settings: mouse, in vivo, Table 7, male mice of about 20 g
Excerpt: An emulsion prepared by diluting with water the present compounds 31, 32, 33, 34, 35, 46, 63, in the form of an emulsifiable concentrate was orally administrated to male mice of about 20 g in body weight.

[5] = system: leafhoppers of resistant and susceptible strains; assay: Emulsion sprayed on rice seedlings, leafhoppers released (Example XVI); type: in vivo, leafhopper; settings: emulsion diluted to 50 times
Experimental: About 20 rice seedlings, cultivated for 20 days after sowing in a flower pot of 8.5 cm in diameter were sprayed with each of the present compounds (31, 32, 35, 39, 40, 42, 45, 48, 55, 59, 60, 63, 131 - 134, 139) in the form of an emulsion which were diluted to 50 times. Each pot was put into the beaker and covered with gauze, into which leafhoppers of resistant and susceptible strains, respectively, were released in each beaker. And the number of knocked down insects after 1 hour and the mortality after 24 hours were counted. As a result, the knock down per centage was more than 50% and the mortality was more than 80% in each case.

| Compound | mortality at 1 % (adults of houseflies) [%] | LC50 [3] [ppm] | Mortality (%) After 1 day (adult planthoppers) [%] | Mortality (%) After 6 days (adult planthoppers) [%] | damage of the Chinese cabbages by tobacco cut worms (tobacco cut worm) | LD50 at 48 h [4] [mg/kg] | knock down percentage after 1 hour [5] | mortality after 24 hours [5] | also measured |
| --- | --- | --- | --- | --- | --- | --- | --- | --- | --- |
| C#CC(C=CC)OC(=O)C1C(C=C(C)C)C1(C)C (stereo not shown) [Compound 1, 1-Ethynyl-2-butenyl chrysanthemate] | – | – | – | – | – | – | – | – | increasing of the damage [1]: the increasing of the damage was not found; LC50 (housefly adults): 5500 µg/mL (≈ 22.3 mM) |
| C#CC(OC(=O)C1C(C=C(C)C)C1(C)C)C(C)=CCC (stereo not shown) [Compound 4, 1-Ethynyl-2-methyl-2-pentenyl chrysanthemate] | – | – | – | – | – | – | – | – | larvae dead after 48 hrs [2]: more than 90%; increasing of the damage [1]: the increasing of the damage was not found; leafhoppers dead after 24 hrs (adult leafhoppers): more than 90%; LC50 (housefly adults): 1400 µg/mL (≈ 5.1 mM) |
| C#CC(C=Cc1ccccc1)OC(=O)C1C(C=C(C)C)C1(C)C (stereo not drawn) [Compound 31, α-Ethynylcinnamyl chrysanthemate] | 92 | 0.12 | 100 | 75.8 | the damage of the Chinese cabbages by tobacco cut worms was not found | > 500 | more than 50% | more than 80% | – |
| C#CC(OC(=O)C1C(C=C(C)C)C1(C)C)C(C)=Cc1ccccc1 (stereo not drawn) [Compound 32, α-Ethynyl-β-methylcinnamyl chrysanthemate] | 96 | 0.069 | 100 | 100 | the damage of the Chinese cabbages by tobacco cut worms was not found | > 500 | more than 50% | more than 80% | – |
| C#CC(OC(=O)C1C(C=C(C)C)C1(C)C)C(C)=Cc1ccc(C)cc1 (stereo not drawn) [Compound 33, α-Ethynyl-β-methyl-4-methylcinnamyl chrysanthemate] | – | 0.34 | – | – | – | > 600 | – | – | – |
| C#CC(OC(=O)C1C(C=C(C)C)C1(C)C)C(C)=Cc1ccccc1Cl (stereo not drawn) [Compound 34, α-Ethynyl-β-methyl-2-chlorocinnamyl chrysanthemate] | – | 0.14 | – | – | – | > 600 | – | – | – |
| C#CC(OC(=O)C1C(C=C(C)C)C1(C)C)C(C)=Cc1ccc2c(c1)OCO2 (stereo not drawn) [Compound 35, α-Ethynyl-β-methyl-3,4-methylenedioxycinnamyl chrysanthemate] | – | – | – | – | – | > 600 | more than 50% | more than 80% | – |
| C#CC(OC(=O)C1C(C=C(C)C)C1(C)C)C(C)=Cc1ccc(C(C)C)cc1 (stereo not drawn) [Compound 46, α-Ethynyl-β-methyl-4-iso-propylcinnamyl chrysanthemate] | – | – | – | – | – | > 600 | – | – | – |
| C#CC(C=CCc1ccccc1)OC(=O)C1C(C=C(C)C)C1(C)C (stereo not drawn) [Compound 62, α-Ethynyl-γ-benzylallyl chrysanthemate] | 93 | 0.034 | 100 | 100 | the damage of the Chinese cabbages by tobacco cut worms was not found | – | – | – | – |
| C#CC(OC(=O)C1C(C=C(C)C)C1(C)C)C(=Cc1ccccc1)CC (stereo not drawn) [Compound 63, α-Ethynyl-β-ethylcinnamyl chrysanthemate] | 95 | 0.14 | 100 | 53.3 | the damage of the Chinese cabbages by tobacco cut worms was not found | > 600 | more than 50% | more than 80% | – |
| C#CC(OC(=O)C1C(C=C(Cl)Cl)C1(C)C)C(C)=Cc1ccc2c(c1)OCO2 (stereo not drawn) [Compound 139, α-Ethynyl-β-methyl-3,4-methylenedioxy-cinnamyl 2',2'-dimethyl-3'-(2",2"-dichlorovinyl)-cyclopropanecarboxylate] | 95 | – | – | – | – | – | more than 50% | more than 80% | – |
